According to patent publication US20230112279A1, “DETERGENT COMPOSITION” (Conopco, Inc., d/b/a UNILEVER, priority 2020, published 2023):

Legend:
Lipex 100 L lipase [1] = target: T1, Lipex 100 L lipase (Thermomyces lanuginosus, UniProt O59952, N255R/T253R); test: Inhibition of Lipex 100 L at fixed dose of 500 μM (Example 7, C12 pNP ester); assay type: biochemical; conditions: fixed dose of 500 μM; for lipase inhibition: Lipex 100 L 10 ng/mL, C12 pNP ester; for Lipex 100L lipase activity (inhibitory effect of various saponin derivatives): lipase 10 ng/mL final, 50 mM Tris pH 8.5, 25° C., C12 pNP ester 0.1 mM final, lipase-only control 0.0545
T1 construct: purchased Novozymes
Procedure: (§1) Lipase activity was determined by a colorimetric method using 4-nitrophenyl-valerate (C5) and 4-nitrophenyl-dodecanoate (C12) as substrates. 4-nitrophenyl-dodecanoate (25 mg) or 4-nitrophenyl-valerate (18 mg) were dissolved in 10 mL solvent (methanol) to prepare 8 mM stock solutions. 1 mL of stock solution was added in 7 mL of acidified water (pH 4.5), to give a final concentration of 1 mM (the substrate). In 96-well microtitre plates the following reagents were added: 60 μL dH2O, 80 μL Tris-HCl buffer (pH 8.5, 50 mM), 20 μL of diluted enzyme solution, 20 μL of saponin 10× concentrated stock solution. 20 μL substrate was then added to start the reaction. For zero enzyme controls, enzyme solution was replaced with H2O. Following the addition of substrate, the release of product (4-nitrophenol) was monitored at 405 nm for 15 min at ambient temperature in a Varioskan plate reader.
Various saponins were tested for their ability to inhibit Lipex 100 L lipase (10 ng/mL final). A buffer was used (50 mM Tris pH 8.5) and the experiments were carried out at 25° C. At a fixed dose of 500 μM a number of those tested were effective in lowering the lipase activity. The substrate used for testing as C12 pNP ester (0.1 mM final). These included glycosylated derivatives of oleanolic acid, avenacin, tea tree saponin as well as escin (table 4). Orlistat as a known inhibitor of lipase was also included for comparison (table 4).

Lipex 100 L lipase [2] = target: T1, Lipex 100 L lipase; test: Biochemical determination of lipase activity (4-nitrophenyl ester hydrolysis, 405 nm) with Lipex 100 L; conditions: for activation of Lipex 100 L: saponin at fixed concentration of 10 μM, FIG. 3; for Lipex 100L activity in the presence of saponins: 10 ng/mL lipase; for % increase in Lipase activity in the presence of escin saponin compared to absence of saponin: Lipex 100L
Procedure: as §1
(§2) The dose response of various lipases to saponins were tested in a biochemical assay. The concentration of lipase in these experiments was 10 μg/L. This level was chosen to ensure that substrate hydrolysis and resultant increase in absorbance measurements falls within the sensitivity of the spectrophotometer. […] In all cases, the lipase activity increased as the escin concentration reached above a threshold value, which varied according to the enzyme in question, but was in the region 0.01 (Resinase HT) to 0.10 μM (Lipex, 100 L, Lipex Evity and Novozyme 51032).
Activation of a single lipase (Lipex 100 L) by a variety of natural saponins and saponins derived through metabolic engineering were tested using the biochemical assay. The unglycosylated terpenoid, oleanolic acid (OA), was also tested to determine whether lipase activation was a result of the terpenoid moiety or required the terpenoid scaffold to be glycosylated. To compare this directly, the enzymes activation by saponins comprising oleanolic acid glycosylated with 3 or 4 glycoside residues at the C28 position of the triterpenoid (oleanolic acid-28-O-triglycoside (OA-28 x3Gly) and oleanolic acid-28-O-tetraglycoside (OA-28 x4Gly), were compared directly to the activation achieved by oleanolic acid.
Biochemical assays measuring lipase activity were initially used in high-throughput microtitre plate format to enable different saponins at different doses to be screened as potential inhibitors of Lipex 100 L lipase (Novozymes). Effective inhibitors are sought to prevent the lipase hydrolytic activity towards the soil release polymer which is typically observed. […] When using 10 ng/mL lipase ([…]) in this case (this level chosen to ensure that substrate hydrolysis and resultant increase in absorbance measurements falls within the sensitivity of the spectrophotometer) the typical saponin concentration required to inhibit the lipase was around 50-125 μM.

Resinase HT = test: Biochemical determination of lipase activity with Resinase HT; conditions: lipase 10 μg/L
Procedure: as §1, §2

Novozym 51032 = test: Biochemical determination of lipase activity with Novozym 51032; conditions: lipase 10 μg/L; for % increase in Lipase activity in the presence of escin saponin compared to absence of saponin: Novozym 51032
Procedure: as §1, §2

Lipex Evity = test: Biochemical determination of lipase activity with Lipex Evity; conditions: lipase 10 μg/L
Procedure: as §1, §2

T1 sequence (O59952 23-291 T253R/N255R): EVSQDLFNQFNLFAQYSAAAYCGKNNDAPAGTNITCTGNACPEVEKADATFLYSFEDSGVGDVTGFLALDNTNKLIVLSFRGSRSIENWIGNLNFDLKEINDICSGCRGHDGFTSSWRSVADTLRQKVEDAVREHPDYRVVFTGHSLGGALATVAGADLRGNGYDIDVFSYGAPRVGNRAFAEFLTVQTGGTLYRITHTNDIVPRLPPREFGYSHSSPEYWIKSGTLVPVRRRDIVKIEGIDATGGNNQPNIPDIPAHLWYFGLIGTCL

## Avenacin
Lipex 100 L lipase [1]
  lipase inhibition: complete inhibition
  Lipex 100L lipase activity (inhibitory effect of various saponin derivatives): 0.0013 (±0.0006) abs/min @405 nm

## CCCCCCCCCCC[C@@H](C[C@@H]1OC(=O)[C@H]1CCCCCC)OC(=O)[C@H](CC(C)C)NC=O [Orlistat, reference compound]
Lipex 100 L lipase [1]
  Lipex 100L lipase activity (inhibitory effect of various saponin derivatives): −0.00032 (±0.0003) abs/min @405 nm

## oleanolic acid-28-O-tetraglycoside [OA-28 x4Gly]
Lipex 100 L lipase [1]
  lipase inhibition: 80%
  Lipex 100L lipase activity (inhibitory effect of various saponin derivatives): 0.0109 (±0.0006) abs/min @405 nm

## oleanolic acid-28-O-triglycoside [OA-28 x3Gly]
Lipex 100 L lipase [2]
  activation of Lipex 100 L: greater than 20 fold
Lipex 100 L lipase [1]
  lipase inhibition: complete inhibition
  Lipex 100L lipase activity (inhibitory effect of various saponin derivatives): −0.0011 (±0.0005) abs/min @405 nm

## CC1(C)[C@@H](O[C@H]2O[C@H](C(=O)O)[C@@H](O)[C@H](O)[C@H]2O[C@@H]2O[C@H](C(=O)O)[C@@H](O)[C@H](O)[C@H]2O)CC[C@]2(C)[C@H]3C(=O)C=C4[C@@H]5C[C@@](C)(C(=O)O)CC[C@]5(C)CC[C@@]4(C)[C@]3(C)CC[C@@H]12 [Glycyrrhizic acid]
Lipex 100 L lipase [2]; saponin dose 0.01 μM
  Lipex 100L activity in the presence of saponins: 0.244 Δabs/min @405 nm
Lipex 100 L lipase [2]; saponin dose 0.1 μM
  Lipex 100L activity in the presence of saponins: 0.252 Δabs/min @405 nm
Lipex 100 L lipase [2]; saponin dose 0.5 μM
  Lipex 100L activity in the presence of saponins: 0.238 Δabs/min @405 nm
Lipex 100 L lipase [2]; saponin dose 10 μM
  Lipex 100L activity in the presence of saponins: 0.221 Δabs/min @405 nm
Lipex 100 L lipase [2]; saponin dose 25 μM
  Lipex 100L activity in the presence of saponins: 0.171 Δabs/min @405 nm
Lipex 100 L lipase [2]; saponin dose 50 μM
  Lipex 100L activity in the presence of saponins: 0.135 Δabs/min @405 nm
Lipex 100 L lipase [2]; saponin dose 125 μM
  Lipex 100L activity in the presence of saponins: 0.116 Δabs/min @405 nm
Lipex 100 L lipase [2]; saponin dose 250 μM
  Lipex 100L activity in the presence of saponins: 0.083 Δabs/min @405 nm
Lipex 100 L lipase [2]; saponin dose 500 μM
  Lipex 100L activity in the presence of saponins: 0.068 Δabs/min @405 nm

## Escin
Lipex 100 L lipase [2]; Lipex 100 L, Table 2 screen
  ability to decrease lipase activity (in words): decrease lipase activity to negligible levels
Lipex 100 L lipase [2]; Lipex 100 L, lipase 10 μg/L
  threshold escin concentration above which lipase activity increased: ~0.10 µM
Lipex 100 L lipase [2]; saponin dose 0.01 μM, lipase 10 μg/L
  % increase in Lipase activity in the presence of escin saponin compared to absence of saponin: −25%
Lipex 100 L lipase [2]; saponin dose 0.1 μM, lipase 10 μg/L
  % increase in Lipase activity in the presence of escin saponin compared to absence of saponin: 25%
Lipex 100 L lipase [2]; saponin dose 0.5 μM, lipase 10 μg/L
  % increase in Lipase activity in the presence of escin saponin compared to absence of saponin: 100%
Lipex 100 L lipase [2]; saponin dose 1 μM, lipase 10 μg/L
  % increase in Lipase activity in the presence of escin saponin compared to absence of saponin: 450%
Lipex 100 L lipase [2]; saponin dose 2.5 μM, lipase 10 μg/L
  % increase in Lipase activity in the presence of escin saponin compared to absence of saponin: 1650%
Lipex 100 L lipase [2]; saponin dose 5 μM, lipase 10 μg/L
  % increase in Lipase activity in the presence of escin saponin compared to absence of saponin: 1775%
Lipex 100 L lipase [2]; saponin dose 0.01 μM
  Lipex 100L activity in the presence of saponins: 0.257 Δabs/min @405 nm
Lipex 100 L lipase [2]; saponin dose 0.1 μM
  Lipex 100L activity in the presence of saponins: 0.241 Δabs/min @405 nm
Lipex 100 L lipase [2]; saponin dose 0.5 μM
  Lipex 100L activity in the presence of saponins: 0.247 Δabs/min @405 nm
Lipex 100 L lipase [2]; saponin dose 10 μM
  Lipex 100L activity in the presence of saponins: 0.200 Δabs/min @405 nm
Lipex 100 L lipase [2]; saponin dose 25 μM
  Lipex 100L activity in the presence of saponins: 0.204 Δabs/min @405 nm
Lipex 100 L lipase [2]; saponin dose 50 μM
  Lipex 100L activity in the presence of saponins: 0.152 Δabs/min @405 nm
Lipex 100 L lipase [2]; saponin dose 125 μM
  Lipex 100L activity in the presence of saponins: 0.006 Δabs/min @405 nm
Lipex 100 L lipase [2]; saponin dose 250 μM
  Lipex 100L activity in the presence of saponins: 0.001 Δabs/min @405 nm
Lipex 100 L lipase [2]; saponin dose 500 μM
  Lipex 100L activity in the presence of saponins: 0.001 Δabs/min @405 nm
Resinase HT
  threshold escin concentration above which lipase activity increased: ~0.01 µM
Resinase HT; saponin dose 0.01 μM
  % increase in Lipase activity in the presence of escin saponin compared to absence of saponin: 70%
Resinase HT; saponin dose 0.1 μM
  % increase in Lipase activity in the presence of escin saponin compared to absence of saponin: 60%
Resinase HT; saponin dose 0.5 μM
  % increase in Lipase activity in the presence of escin saponin compared to absence of saponin: 170%
Resinase HT; saponin dose 1 μM
  % increase in Lipase activity in the presence of escin saponin compared to absence of saponin: 210%
Resinase HT; saponin dose 2.5 μM
  % increase in Lipase activity in the presence of escin saponin compared to absence of saponin: 140%
Resinase HT; saponin dose 5 μM
  % increase in Lipase activity in the presence of escin saponin compared to absence of saponin: 200%
Lipex 100 L lipase [1]
  Lipex 100L lipase activity (inhibitory effect of various saponin derivatives): 0.0039 (±0.0027) abs/min @405 nm
Novozym 51032; saponin dose 0.01 μM
  % increase in Lipase activity in the presence of escin saponin compared to absence of saponin: 0%
Novozym 51032; saponin dose 0.1 μM
  % increase in Lipase activity in the presence of escin saponin compared to absence of saponin: 50%
Novozym 51032; saponin dose 0.5 μM
  % increase in Lipase activity in the presence of escin saponin compared to absence of saponin: 50%
Novozym 51032; saponin dose 1 μM
  % increase in Lipase activity in the presence of escin saponin compared to absence of saponin: 50%
Novozym 51032; saponin dose 2.5 μM
  % increase in Lipase activity in the presence of escin saponin compared to absence of saponin: 150%
Novozym 51032; saponin dose 5 μM
  % increase in Lipase activity in the presence of escin saponin compared to absence of saponin: 250%
Novozym 51032; Novozyme 51032
  threshold escin concentration above which lipase activity increased: ~0.10 µM
Lipex Evity
  threshold escin concentration above which lipase activity increased: ~0.10 µM
Lipex Evity; saponin dose 0.01 μM
  % increase in Lipase activity in the presence of escin saponin compared to absence of saponin: 0%
Lipex Evity; saponin dose 0.1 μM
  % increase in Lipase activity in the presence of escin saponin compared to absence of saponin: 20%
Lipex Evity; saponin dose 0.5 μM
  % increase in Lipase activity in the presence of escin saponin compared to absence of saponin: 120%
Lipex Evity; saponin dose 1 μM
  % increase in Lipase activity in the presence of escin saponin compared to absence of saponin: 200%
Lipex Evity; saponin dose 2.5 μM
  % increase in Lipase activity in the presence of escin saponin compared to absence of saponin: 240%
Lipex Evity; saponin dose 5 μM
  % increase in Lipase activity in the presence of escin saponin compared to absence of saponin: 260%

## CC1(C)CC[C@]2(C(=O)O)CC[C@]3(C)C(=CC[C@@H]4[C@@]5(C)CC[C@H](O)C(C)(C)[C@@H]5CC[C@]43C)[C@@H]2C1 [Oleanolic acid, reference compound]
Lipex 100 L lipase [2]
  activation of Lipex 100 L: small activation
Lipex 100 L lipase [1]
  Lipex 100L lipase activity (inhibitory effect of various saponin derivatives): 0.0842 (±0.0084) abs/min @405 nm
